# Data as given in patent US9951039B2, “Pyrimidines for treatment of bacterial infections” (The Hong Kong Polytechnic University, priority 2016, dated 2018).
# Test system: B. subtilis 168
# Assay: Bacterial morphology of B. subtilis 168 (phase-contrast microscopy)
# Assay type: cell-based
# Settings: sub-lethal concentration, 4 h
# Protocol: Procedure: The B. subtilis 168 cells were grown in LB medium. The cultures at an A600 of 0.01 from an overnight culture were inoculated in the same medium containing different concentrations of the test compounds and grown at 37° C. for 4 h. The cells for morphology studies were harvested and resuspended in 100 μL of PBS buffer containing 0.25% agarose. 10 μL of the suspension mixture were then placed on a microscopic slide pretreated with 0.1% (w/v) poly-L-lysine and the morphology of the bacterial cells was observed under a phase-contrast optical microscope at 40× magnification. The images were captured using an Olympus Bio Imaging Navigator FSX 100 microscope.
smiles,measurement,value
"CCC(CC)c1cc(CCN2CCCN(Cc3ccc(C(F)(F)F)cc3)CC2)nc(-c2ccncc2)n1 [Compound 14av_amine16, 1-(2-(6-(pentan-3-yl)-2-(pyridin-4-yl)pyrimidin-4-yl)ethyl)-4-(4-(trifluoromethyl)benzyl)-1,4-diazepane]",average cell length,> 20 μm
